# Experimental data published in patent US10758513B2, “Modulators of mitochondrial protein import” (THE REGENTS OF THE UNIVERSITY OF CALIFORNIA, priority 2011, dated 2020).
# Experiments:
# mouse liver mitochondria = assay: Import of radiolabeled precursors into isolated mouse liver mitochondria; format: biochemical; set-up: import of AAC: dose or concentration left out as unconfirmed
# Procedure: Mitochondria were purified from yeast cells grown in YPEG or selective SEG medium as described in previous studies (Glick B S, Pon L A (1995). Methods Enzymol 260:213-223). Yeast cultures were kept at a constant 25° C. with vigorous shaking during growth. After concentration was measured by BCA assay, mitochondria were stored in 25 mg/ml aliquots at −80° C. Mammalian mitochondria were isolated from 2-4 freshly excised mouse livers by differential centrifugation. Briefly, isolated livers were washed 3× with cold PBS and then suspended in 4-5 mL isolation buffer (70 mM Sucrose, 220 mM mannitol, 2rnM HEPES-KOH, pH 7.4) per gram of tissue. Livers were first chopped into small pieces and then dounced 5× using a teflon dounce. Homogenized material was then centrifuged at 1,000 RPM for […] in a clinical centrifuge and supernatants were transferred to fresh tubes. Centrifugation at 1,000 RPM for 10 min was then repeated and supernatants were transferred to microfuge tubes. Next, supernatant material was spun for 10 min at 800×g (this process was repeated a second time). The supernatants from these steps were subjected to a high-speed (12,000×g for 20 min) spin to pellet heavy membrane fractions. Pellets were washed in isolation buffer and spun again (12,000×g for 20 min). After the final centrifugation step, supernatants were discarded and heavy membrane fraction was resuspended in mammalian import buffer (250 mM sucrose, 5 mM magnesium acetate, 80 mM potassium acetate, 10 mM sodium succinate, 1 mM dithiothreitol, 0.1 mM ADP, 20 mM Hepes-KOH, pH 7.4) as described in Johnston A J, et al. (2002), J Biol Chem 277:42197-42204 and kept on ice. All subsequent imports were performed within 1 hour of isolation of mammalian mitochondria. Mitochondrial concentrations were determined by BCA assay.
# Prior to import into purified mitochondria, ^35S-methionine and cysteine labeled proteins were generated with TNT Quick Coupled Transcription/Translation kits (Promega) and plasmids carrying the gene of interest. Transcription of genes was driven by either a T7 or SP6 promoter. […]
# Tim9-Tim10 complex = molecular target: T1, Tim9-Tim10 complex (Saccharomyces cerevisiae, UniProt O74700+P87108); assay: Tim9-Tim10 complex stability by blue native gel; format: biochemical, yeast; settings: 25 and 50 μM; BN gel
# T1 construct: endogenous in cells; host or cells: isolated yeast mitochondria
# T1 sequence (O74700 whole entry): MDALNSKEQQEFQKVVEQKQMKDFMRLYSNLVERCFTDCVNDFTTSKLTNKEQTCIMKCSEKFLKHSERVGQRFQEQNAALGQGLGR
# T1 sequence (P87108 whole entry): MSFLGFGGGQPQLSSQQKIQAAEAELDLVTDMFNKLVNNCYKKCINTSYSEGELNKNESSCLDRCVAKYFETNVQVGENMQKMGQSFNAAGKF
# Procedure: Respiration measurements were performed with an oxygen electrode using yeast mitochondria (M) from the tim10 tim9S suppressor strain in the presence of (A) 1% DMSO (vehicle control for drug) and (B) MitoBloCK-1. Respiration was initiated with NADH addition. 25 μM MitoBloCK-1 or 1% DMSO was added once steady-state respiration had been established. As a control, CCCP was added to uncouple the electron transport chain. (C) Respiration for series with DMSO or MitoBloCK-1 addition was quantitated (n=3). Bars represent mean rates with standard deviations as error bars. (D) Membrane potential (Δψ) of mitochondria measurements of purified mitochondria were performed with the fluorescent dye rhodamine 123 using a fluorimeter. Coupled mitochondria (M) sequestered and quenched the dye fluorescence; 1% DMSO was added to determine its effect on the […]. Collapse of the Δψ initiated by CCCP was included as a control. […] (H) As in 7B, MitoBloCK-1 (25 and 50 μM) was incubated with mitochondria and assembly of the Tim9-Tim10 complex was monitored by BN gels and immunoblotting with antibodies against Tim 10.
# Steady-state levels of the small Tim complexes were analyzed from mitochondria isolates from TIA110,titn10-1, and titn10-1 titn9S strains following established methods (Murphy M P, et al., (2001), Mol Cell Biol 21:6132-6138). […]
# [1] = Stability of MitoBloCK-6 in screening buffer by LC-MS; format: physicochemical; settings: pH 3.4, 6.5, 7.4; room temperature, 1 hour
# Procedure: MitoBloCK-6 at a final concentration of 3 mM was incubated with screening buffer (30 mM Hepes, 100 mM NaCl, 1 mM EDTA) at pH 3.4, 6.5, and 7.4 in a reaction volume of 100 μl at room temperature for 1 hour. The sample was injected into the LC-MS and retention was monitored. As a control, 20 mM MitoBloCK-6 in 1% DMSO was also analyzed.
# LC-MS experiments were carried out on a Waters Acquity UPLC connected to a Waters LCT-Premier XE Time of Flight Instrument controlled by MassLynx 4.1 software. The mass spectrometer was equipped with a Multi-Mode Source operated in the electrospray mode. Briefly, samples of MitoBloCK-6, ES-1, and ES-2 were separated using an Acquity BEH C18 1.7 um column (2.1×50 mm, Waters) and were eluted with a gradient of 0.5 mL/min water/acetonitrile with 2, 80, and 95% acetonitrile at 0.5, 2.5 and 3.5 min, respectively. Mass spectra were recorded from 80 to 2000 Daltons. All solvents were LC-MS/MS Grade and purchased from Fisher Scientific.
SMILES,import of AAC (mouse liver mitochondria),import of Hsp60 (mouse liver mitochondria),import of Su9-DHFR (mouse liver mitochondria),steady-state stability of the Tim9-Tim10 complex (Tim9-Tim10 complex),stability by LC-MS [1]
NC(=S)N/N=C/c1c(O)c(Br)cc2oc3c(c12)CCCC3 [MitoBloCK-1],inhibited,not altered,not altered,did not alter steady-state stability of the Tim9-Tim10 complex,–
Oc1c(Cl)cc(Cl)cc1/C=N/c1ccc(Nc2ccccc2)cc1 [MitoBloCK-6],–,–,–,–,stable over this pH range
